Assay results: US20250257055A1, “TERTIARY AMIDE DERIVATIVES SUBSTITUTED WITH 4-MEMBERED RING STRUCTURE” (Sumitomo Pharma Co., Ltd., priority 2024, published 2025)

How the values were obtained:
G-401 xenograft = experiment: Drug efficacy evaluation by oral administration using G-401 xenograft model mice; assay type: in vivo; conditions: for antitumor effect (in words): G-401 xenograft model, oral administration; for T/C: oral twice a day
Protocol: G-401 cells (ATCC) were intradermally transplanted into 4-7-week-old BALB/cAnNCrj-nu/nu mice (CAnN.Cg-Foxn1/CrlCrlj, Jackson Laboratory Japan) at 5×10^5 cells/mouse. After confirming the engraftment of G-401 cells 10-40 days after transplantation, the test compound suspended in a solvent such as 0.5% methylcellulose solution was orally administered twice a day at a dose of 1-100 mg/kg. The tumor volume was measured over time from the start of administration, and the effect of tumor volume reduction by administration of the test compound was evaluated. The tumor volume can be calculated from the following equation using the minor axis and major axis of the tumor measured with an electronic caliper (Mitutoyo).
A control administration group administered with only a solvent such as 0.5% methylcellulose solution and a test compound administration group were compared, and the antitumor effect was evaluated by calculating T/C from the following equation.

hSERT = hSERT (Homo sapiens (Human), UniProt P31645); experiment: Serotonin receptor inhibitory activity evaluation (binding assay, HEK293/hSERT membranes); conditions: HEK293/hSERT membrane preparation, [3H]Paroxetin
Protocol: The binding evaluation assay was outsourced to Eurofins. Specifically, HEK293/hSERT cells were homogenized in a buffer consisting of 100 mmol/L NaCl, 1 μmol/L Leupeptin, 10 μmol/L PMSF, and 50 mmol/L Tris-HCl (pH7.4). The membrane pellet obtained by centrifugation was resuspended in an incubation buffer consisting of 50 mmol/L Tris-HCl (pH 7.4), 120 mmol/L NaCl, and 5 mmol/L KCl to prepare a membrane preparation. The test compound (1-10 μmol/L DMSO solution), the membrane preparation, and 0.4 nmol/L [^3H]Paroxetin were mixed and incubated at 25° C. for 60 minutes. The cell membrane-[^3H]Paroxetin complex was bound to a GF/B filter mat by vacuum filtration and washed with 50 mmol/L Tris-HCl (pH 7.4). The effect on the receptor was assessed by measuring radioactivity using a scintillation counter.

[1] = Pharmacokinetic study in mice; assay type: in vivo; conditions: for AUC / clearance / half-life / Vd / Cmax: female, BALB/c (BALB/cAnN CrlCrlj), mouse, plasma; for Vd: read-out: Vdss
Procedure, shortened: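 Female 7-week-old BALB/c mice were dosed 1 mg/kg intravenously (50% PEG, 0.01 mol/L HCl) or 10 mg/kg orally (0.5% methylcellulose). Plasma was sampled from 5 or 15 min up to 24 hr, and concentrations were quantified by LC-MS against an internal-standard calibration curve.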

Sequence of hSERT (P31645 whole entry): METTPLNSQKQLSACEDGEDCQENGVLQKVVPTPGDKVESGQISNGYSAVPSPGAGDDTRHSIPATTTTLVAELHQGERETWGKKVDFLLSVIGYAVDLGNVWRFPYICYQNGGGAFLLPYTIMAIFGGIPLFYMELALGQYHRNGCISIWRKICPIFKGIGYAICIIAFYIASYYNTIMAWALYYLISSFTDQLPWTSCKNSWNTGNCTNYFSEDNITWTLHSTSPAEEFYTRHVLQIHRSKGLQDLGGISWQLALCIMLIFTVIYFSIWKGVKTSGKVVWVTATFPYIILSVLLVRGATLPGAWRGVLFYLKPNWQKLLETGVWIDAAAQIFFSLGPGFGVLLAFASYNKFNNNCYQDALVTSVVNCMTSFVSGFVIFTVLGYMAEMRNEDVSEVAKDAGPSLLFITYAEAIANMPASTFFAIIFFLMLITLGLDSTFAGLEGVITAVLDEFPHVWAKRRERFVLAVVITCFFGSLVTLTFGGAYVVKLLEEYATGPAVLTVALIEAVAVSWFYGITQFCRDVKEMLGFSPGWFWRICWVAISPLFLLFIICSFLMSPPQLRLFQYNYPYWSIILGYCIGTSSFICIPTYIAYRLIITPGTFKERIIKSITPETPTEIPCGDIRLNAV

SMILES	antitumor effect (in words) (G-401 xenograft)	T/C (G-401 xenograft; 20 mg/kg, 21 days)	T/C (G-401 xenograft; 30 mg/kg, 21 days)	inhibition at 10 µM (hSERT)	AUC ([1]; intravenous, 1 mg/kg)	clearance ([1]; intravenous, 1 mg/kg)	half-life ([1]; intravenous, 1 mg/kg)	Vd ([1]; intravenous, 1 mg/kg)	AUC ([1]; oral, 10 mg/kg)	Cmax ([1]; oral, 10 mg/kg)	BA ([1]; oral, 10 mg/kg)	T/C (G-401 xenograft; 3 mg/kg, 21 days)	T/C (G-401 xenograft; 10 mg/kg, 21 days)	T/C (G-401 xenograft; 10 mg/kg, 34 days)	T/C (G-401 xenograft; 30 mg/kg, 34 days)
CN1CC(N(Cc2ccc(F)cn2)C(=O)CN2C(=O)N[C@]3(C[C@@H](F)c4cc(-c5cnn(C)c5)ccc43)C2=O)(C(F)(F)F)C1 [Example 20, 2-[(1′S,3′R)-3′-fluoro-5′-(1-methyl-1H-pyrazol-4-yl)-2,5-dioxo-2′,3′-dihydrospiro[imidazolidine-4,1′-inden]-1-yl]-N-[(5-fluoropyridin-2-yl)methyl]-N-[1-methyl-3-(trifluoromethyl)azetidin-3-yl]acetamide]	strong antitumor effects	80%	89%	-1%	528 ng·h/mL	31.1 mL/min/kg	1.34 h	1.6 L/kg	1520 ng·h/mL	1340 ng/mL	28.8%	–	–	–	–
CN1CC(N(Cc2ccc(F)cc2)C(=O)CN2C(=O)N[C@]3(C[C@@H](F)c4cc(-c5cnn(C)c5)ccc43)C2=O)(C(F)(F)F)C1 [Example 10, 2-[(1′S,3′R)-3′-fluoro-5′-(1-methyl-1H-pyrazol-4-yl)-2,5-dioxo-2′,3′-dihydrospiro[imidazolidine-4,1′-inden]-1-yl]-N-[(4-fluorophenyl)methyl]-N-[1-methyl-3-(trifluoromethyl)azetidin-3-yl]acetamide]	strong antitumor effects	–	–	-5%	491 ng·h/mL	33.5 mL/min/kg	1.16 h	1.8 L/kg	3480 ng·h/mL	3240 ng/mL	70.8%	53%	102%	–	–
O=C1N[C@]2(C[C@@H](F)c3cc(-c4cnn(C5CCN(C6COC6)CC5)c4)ccc32)C(=O)N1CC(=O)N(Cc1ccc(F)cn1)C1(C(F)(F)F)COC1 [Example 23, 2-[(1′S,3′R)-3′-fluoro-5′-{1-[1-(oxetan-3-yl)piperidin-4-yl]-1H-pyrazol-4-yl}-2,5-dioxo-2′,3′-dihydrospiro[imidazolidine-4,1′-inden]-1-yl]-N-[(5-fluoropyridin-2-yl)methyl]-N-[3-(trifluoromethyl)oxetan-3-yl]acetamide]	strong antitumor effects	81%	–	3%	1690 ng·h/mL	9.8 mL/min/kg	4.1 h	1.8 L/kg	8400 ng·h/mL	8140 ng/mL	49.7%	–	–	–	–
CN1CC(N(Cc2ccc(F)cn2)C(=O)CN2C(=O)N[C@]3(C[C@@H](F)c4cc(-c5cnn(C6COC6)c5)ccc43)C2=O)(C(F)(F)F)C1 [Example 24, 2-{(1′S,3′R)-3′-fluoro-5′-[1-(oxetan-3-yl)-1H-pyrazol-4-yl]-2,5-dioxo-2′,3′-dihydrospiro[imidazolidine-4,1′-inden]-1-yl}-N-[(5-fluoropyridin-2-yl)methyl]-N-[1-methyl-3-(trifluoromethyl)azetidin-3-yl]acetamide]	–	–	–	15%	313 ng·h/mL	53 mL/min/kg	1.15 h	2.1 L/kg	1470 ng·h/mL	1470 ng/mL	47.0%	–	–	–	–
O=C1N[C@]2(C[C@@H](F)c3cc(-c4cnn(C5CN(C6COC6)C5)c4)ccc32)C(=O)N1CC(=O)N(Cc1ccc(F)cn1)C1(C(F)(F)F)COC1 [Example 7, 2-[(1′S,3′R)-3′-fluoro-5′-{1-[1-(oxetan-3-yl)azetidin-3-yl]-1H-pyrazol-4-yl}-2,5-dioxo-2′,3′-dihydrospiro[imidazolidine-4,1′-inden]-1-yl]-N-[(5-fluoropyridin-2-yl)methyl]-N-[3-(trifluoromethyl)oxetan-3-yl]acetamide]	strong antitumor effects	–	–	-1%	819 ng·h/mL	19.9 mL/min/kg	1.41 h	1.3 L/kg	8240 ng·h/mL	6140 ng/mL	100.6%	–	–	31%	80%
